Measurements from patent US20060069132A1, “Azolecarboxamide herbicides” (priority 2004, published 2006).

What was measured:
redroot pigweed = assay: Test A pre-/postemergence herbicide test; format: in vivo, Amaranthus retroflexus
How it was run: (§1)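 Plants are held in greenhouse about ten days after treatment, then compared with untreated controls and scored 0 (no effect) to 100 (complete control). Preemergence dosing is a directed soil spray on sown sandy loam; postemergence dosing is spray to runoff at 2–10 cm height.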

barnyardgrass [1] = assay: Test B pre-/postemergence herbicide test; format: in vivo, Echinochloa crus-galli; conditions: for Plant response rating, Barnyardgrass: preemergence; for Barnyardgrass plant response rating: postemergence, visual rating, scale 0 (no effect) to 100 (complete control)
How it was run: (§2)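 Response was scored visually 13 to 15 days after treatment against untreated greenhouse controls, 0 meaning no effect and 100 complete control. Formulations (solvent mixture plus surfactant) went onto soil after planting, onto foliage of 1- to 4-leaf plants, and onto 2-leaf plants in a flooded paddy set including rice and barnyardgrass.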

large crabgrass [2] = assay: Test B pre-/postemergence herbicide test; format: in vivo, Digitaria sanguinalis; conditions: for Plant response rating, Crabgrass, Large: preemergence; for Crabgrass, Large plant response rating: postemergence, visual rating, scale 0 (no effect) to 100 (complete control)
How it was run: (§3)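 Pre: seeds sown, then sprayed. Post: 1–4-leaf plants (2–18 cm) sprayed at the same time. Paddy: flooded, treated at 2-leaf stage. Formulation: non-phytotoxic solvent with surfactant. Greenhouse 13–15 days; visual 0–100 score relative to controls.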

[3] = system: small flower umbrella sedge; assay: Test B flooded paddy test; format: in vivo, Cyperus difformis; conditions: 1000 g ai/ha, visual rating, scale 0 to 100 (0 no effect, 100 complete control), 13 to 15 days
How it was run: (§4)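 Visual control ratings, 0–100 versus untreated controls, taken after 13 to 15 days in the greenhouse. Blackgrass received a postemergence spray at the 1- to 4-leaf stage (2–18 cm); ducksalad, umbrella sedge and barnyardgrass were flooded-paddy treated at 2 leaves.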

blackgrass = assay: Test B postemergence herbicide test; format: in vivo, Alopecurus myosuroides; conditions: postemergence, visual rating, scale 0 (no effect) to 100 (complete control)
How it was run: as §4

giant foxtail [4] = assay: Test A pre-/postemergence herbicide test; format: in vivo, Setaria faberi
How it was run: as §1

corn = assay: Test B pre-/postemergence herbicide test; format: in vivo, Zea mays; conditions: for Plant response rating, Corn: preemergence; for Corn plant response rating: postemergence, visual rating, scale 0 (no effect) to 100 (complete control)
How it was run: as §3

wheat = assay: Test B postemergence herbicide test; format: in vivo, Triticum aestivum; parameters: key to Wheat plant response rating: 0 = no effect, 100 = complete control; conditions: postemergence, 500 g ai/ha; visual rating, scale 0 (no effect) to 100 (complete control)
How it was run: (§5)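 Formulated test chemicals went onto postemergence plants measuring 2 to 18 cm, at one to four leaves. For the paddy assay, species had reached two leaves. Scoring took place 13–15 days later by eye, relative to untreated plants, using 0 for no effect up to 100 for full control.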

barnyardgrass [5] = assay: Test A pre-/postemergence herbicide test; format: in vivo, Echinochloa crus-galli
How it was run: as §1

large crabgrass [6] = assay: Test A pre-/postemergence herbicide test; format: in vivo, Digitaria sanguinalis
How it was run: as §1

wild oat = assay: Test B postemergence herbicide test; format: in vivo, Avena fatua; conditions: postemergence, visual rating, scale 0 (no effect) to 100 (complete control)
How it was run: as §5

velvetleaf [7] = assay: Test A pre-/postemergence herbicide test; format: in vivo, Abutilon theophrasti
How it was run: as §1

pigweed = assay: Test B pre-/postemergence herbicide test; format: in vivo, Amaranthus retroflexus; conditions: for Plant response rating, Pigweed: preemergence; for Pigweed plant response rating: postemergence, visual rating, scale 0 (no effect) to 100 (complete control)
How it was run: as §3

morningglory [8] = assay: Test B pre-/postemergence herbicide test; format: in vivo, Ipomoea coccinea; conditions: for Plant response rating, Morningglory: preemergence; for Morningglory plant response rating: postemergence, visual rating, scale 0 (no effect) to 100 (complete control)
How it was run: as §2

morningglory [9] = assay: Test A pre-/postemergence herbicide test; format: in vivo, Ipomoea spp.
How it was run: as §1

ducksalad = assay: Test B flooded paddy test; format: in vivo, Heteranthera limosa; conditions: 1000 g ai/ha, visual rating, scale 0 to 100 (0 no effect, 100 complete control), 13 to 15 days
How it was run: as §4

rice = assay: Test B flooded paddy test; format: in vivo, Oryza sativa; conditions: 1000 g ai/ha, visual rating, scale 0 to 100 (0 no effect, 100 complete control), 13 to 15 days
How it was run: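 Plants grow to 1- to 4-leaf stage (2–18 cm) for postemergence spraying, or to 2-leaf stage for the paddy test. Formulated compound is applied. Greenhouse holding lasts 13–15 days. Response is scored visually relative to controls, 0 no effect to 100 complete control; a dash means no result.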

lambsquarters = assay: Test B pre-/postemergence herbicide test; format: in vivo, Chenopodium album; conditions: for Plant response rating, Lambsquarters: preemergence; for Lambsquarters plant response rating: postemergence, visual rating, scale 0 (no effect) to 100 (complete control)
How it was run: as §3

giant foxtail [10] = assay: Test B pre-/postemergence herbicide test; format: in vivo, Setaria faberi; conditions: for Plant response rating, Foxtail, Giant: preemergence; for Foxtail, Giant plant response rating: postemergence, visual rating, scale 0 (no effect) to 100 (complete control)
How it was run: as §3

barnyardgrass [11] = assay: Test B flooded paddy test; format: in vivo, Echinochloa crus-galli; conditions: 1000 g ai/ha, visual rating, scale 0 to 100 (0 no effect, 100 complete control), 13 to 15 days
How it was run: as §4

cocklebur = assay: Test B pre-/postemergence herbicide test; format: in vivo, Xanthium strumarium; conditions: for Plant response rating, Cocklebur: preemergence; for Cocklebur plant response rating: postemergence, visual rating, scale 0 (no effect) to 100 (complete control)
How it was run: as §2

Surinam grass = assay: Test B pre-/postemergence herbicide test; format: in vivo, Urochloa decumbens; conditions: for Plant response rating, Surinam Grass: preemergence; for Surinam Grass plant response rating: postemergence, visual rating, scale 0 (no effect) to 100 (complete control)
How it was run: as §3

velvetleaf [12] = assay: Test B pre-/postemergence herbicide test; format: in vivo, Abutilon theophrasti; conditions: for Plant response rating, Velvetleaf: preemergence; for Velvetleaf plant response rating: postemergence, visual rating, scale 0 (no effect) to 100 (complete control)
How it was run: as §3

[13] = Postemergence, 500 g ai/ha, 0 to 100 scale, 0 no effect, 100 complete control
[14] = Postemergence, 2000 g ai/ha, 0 to 100 scale, 0 no effect, 100 complete control
[15] = Preemergence, 2000 g ai/ha, visual rating, 0 to 100 scale (0 no effect, 100 complete control)
[16] = preemergence, 500 g ai/ha, visual injury, 0 to 100 scale (0 no effect, 100 complete control)
[17] = 500 g ai/ha, visual rating 0-100, 0 no effect, 100 complete control
[18] = 125 g ai/ha, 0 to 100 scale, 0 is no effect, 100 is complete control
[19] = Preemergence, 500 g ai/ha, visual rating, 0 to 100 scale (0 no effect, 100 complete control)

CC(=NO)c1ccnc(NC(=O)c2cc(C(C)(C)C)nn2C)n1 [Compound 164]
0: Pigweed plant response rating (redroot pigweed; [13]) | Plant response rating, Pigweed (redroot pigweed; [14]) | Pigweed plant response rating (redroot pigweed; [15]) | Pigweed plant response rating (redroot pigweed; [16]) | Plant response rating, Barnyardgrass (barnyardgrass [1]; [17]) | Barnyardgrass plant response rating (barnyardgrass [1]; 125 g ai/ha) | Barnyardgrass plant response rating (barnyardgrass [1]; 500 g ai/ha) | Plant response rating, Barnyardgrass (barnyardgrass [1]; [18]) | Plant response rating, Crabgrass, Large (large crabgrass [2]; [17]) | Crabgrass, Large plant response rating (large crabgrass [2]; 125 g ai/ha) | Crabgrass, Large plant response rating (large crabgrass [2]; 500 g ai/ha) | Plant response rating, Crabgrass, Large (large crabgrass [2]; [18]) | Sedge, Umbrella plant response rating [3] | Blackgrass plant response rating (blackgrass; 125 g ai/ha) | Blackgrass plant response rating (blackgrass; 500 g ai/ha) | Foxtail, Giant plant response rating (giant foxtail [4]; [13]) | Plant response rating, Foxtail, Giant (giant foxtail [4]; [14]) | Foxtail, Giant plant response rating (giant foxtail [4]; [19]) | Foxtail, Giant plant response rating (giant foxtail [4]; [15]) | Plant response rating, Corn (corn; [17]) | Corn plant response rating (corn; 125 g ai/ha) | Plant response rating, Corn (corn; [18]) | Wheat plant response rating (wheat) | Barnyardgrass plant response rating (barnyardgrass [5]; [19]) | Barnyardgrass plant response rating (barnyardgrass [5]; [15]) | Crabgrass, Large plant response rating (large crabgrass [6]; [19]) | Crabgrass, Large plant response rating (large crabgrass [6]; [15]) | Oat, Wild plant response rating (wild oat; 125 g ai/ha) | Oat, Wild plant response rating (wild oat; 500 g ai/ha) | Plant response rating, Velvetleaf (velvetleaf [7]; [14]) | Velvetleaf plant response rating (velvetleaf [7]; [15]) | Velvetleaf plant response rating (velvetleaf [7]; [16]) | Plant response rating, Pigweed (pigweed; [17]) | Pigweed plant response rating (pigweed; 125 g ai/ha) | Pigweed plant response rating (pigweed; 500 g ai/ha) | Plant response rating, Pigweed (pigweed; [18]) | Plant response rating, Morningglory (morningglory [8]; [17]) | Morningglory plant response rating (morningglory [8]; 125 g ai/ha) | Morningglory plant response rating (morningglory [8]; 500 g ai/ha) | Plant response rating, Morningglory (morningglory [8]; [18]) | Morningglory plant response rating (morningglory [9]; [19]) | Morningglory plant response rating (morningglory [9]; [15]) | Ducksalad plant response rating (ducksalad) | Rice plant response rating (rice) | Plant response rating, Lambsquarters (lambsquarters; [17]) | Lambsquarters plant response rating (lambsquarters; 125 g ai/ha) | Plant response rating, Lambsquarters (lambsquarters; [18]) | Plant response rating, Foxtail, Giant (giant foxtail [10]; [17]) | Foxtail, Giant plant response rating (giant foxtail [10]; 125 g ai/ha) | Foxtail, Giant plant response rating (giant foxtail [10]; 500 g ai/ha) | Plant response rating, Foxtail, Giant (giant foxtail [10]; [18]) | Barnyardgrass plant response rating (barnyardgrass [11]) | Plant response rating, Cocklebur (cocklebur; [17]) | Cocklebur plant response rating (cocklebur; 125 g ai/ha) | Cocklebur plant response rating (cocklebur; 500 g ai/ha) | Plant response rating, Cocklebur (cocklebur; [18]) | Plant response rating, Surinam Grass (Surinam grass; [17]) | Surinam Grass plant response rating (Surinam grass; 125 g ai/ha) | Plant response rating, Surinam Grass (Surinam grass; [18]) | Plant response rating, Velvetleaf (velvetleaf [12]; [17]) | Velvetleaf plant response rating (velvetleaf [12]; 125 g ai/ha) | Velvetleaf plant response rating (velvetleaf [12]; 500 g ai/ha) | Plant response rating, Velvetleaf (velvetleaf [12]; [18])
10: Corn plant response rating (corn; 500 g ai/ha) | Barnyardgrass plant response rating (barnyardgrass [5]; [13]) | Plant response rating, Barnyardgrass (barnyardgrass [5]; [14]) | Crabgrass, Large plant response rating (large crabgrass [6]; [13]) | Plant response rating, Crabgrass, Large (large crabgrass [6]; [14]) | Morningglory plant response rating (morningglory [9]; [13]) | Lambsquarters plant response rating (lambsquarters; 500 g ai/ha) | Surinam Grass plant response rating (Surinam grass; 500 g ai/ha)
5: Velvetleaf plant response rating (velvetleaf [7]; [13]) | Plant response rating, Morningglory (morningglory [9]; [14])
